The source of these data is US7875607B2, “7,8-bicycloakyl-chroman derivatives” (Ampere Life Sciences, Inc., priority 2004, dated 2011).

SMILES strings stand for the structures.

For one assay, the system named is IL-1beta production in mouse microglial cell line. Briefly: Interleukin-1β microglial cell assay. Conditions: LPS 10 μg/ml and IFN gamma 10 ng/ml, 24 hours, read-out: EC50, inhibition of IL-1beta production. In kind it is cell-based. On the procedure: This assay measures the release of IL-1β from a mouse microglial cell line following an inflammatory challenge with LPS and interferon-gamma. The ability of test articles to inhibit microglial cell activation and IL-1β release is determined by co-incubation of the test article with the inflammatory challenge.
Mouse microglial cells were seeded in poly-D-lysine coated 96-well plates at a density of 10,000 cells/well and allowed to attach for 24 hours. Cells were stimulated by addition of LPS (10 μg/ml) and IFN gamma (10 ng/ml) in the presence or absence of test article. The cells were then incubated for 24 hours at 37° C., after which time the media was removed and used for cytokine determination as described below.
Viability of mouse microglial cells after exposure to the test article was determined using a fluorescent viability dye, Cell Tracker Green. Cell Tracker Green was used at a working concentration of 5 μM in 1×HBSS. Cells were washed once with HBSS (200 μl/well) and 100 μl Cell Tracker Green was added to each well. Cells were then incubated at 37° C. for 30 minutes, after which time the Cell Tracker was removed and the cells were washed once with HBSS (200 μl/well). 100 μl fresh HBSS was added to each well and the plate was read on a Fluoroskan plate reader using an excitation wavelength of 485 nm and an emission wavelength of 538 nm.
Solutions: • Wash Buffer: PBS 1 L+500 μl Tween 20 (final 0.05%) pH 7.2-7.4. • Blocking Buffer: 500 ml PBS+5 g BSA V (1%)+25 g Sucrose (5%)+0.25 g Sodium Azide (0.05%). • Reagent Diluent: 500 ml PBS+5 g BSA V (1%) pH 7.2-7.4 and filter sterilize through 0.2 μm. • Stop Solution: 2N sulfuric acid.
Duo Set Preparations: • 1. The IL-1β capture antibody was reconstituted in 1 ml of PBS to give a final concentration of 720 μg/ml, and the working concentration was 4 μg/ml. For coating one 96-well plate (at 100 μl/well) 56 μl of the 720 μg/ml stock was diluted into 10 ml of PBS. • 2. The IL-1β standards were reconstituted in 0.5 ml of Reagent Diluent (70 ng/ml). For a high standard of 1 ng/ml (2 wells at 100 μl each+enough for series dilution) 7.1 μl of the 70 ng/ml standard were diluted into 0.5 ml of Reagent Diluent • 3. The IL-1β detection antibody was reconstituted in 1 ml of Reagent Diluent to give a final concentration of 18 μg/ml and the working concentration is 100 ng/ml. For one 96-well plate (at 100 μl/well) 56 μl of the 18 μg/ml stock was diluted into 10 ml of Reagent Diluent.
• The Costar EIA Hi-binding plate was coated with capture antibody at 4 μg/ml. Each well was coated with 100 μl, and the plate was sealed and incubated overnight at room temperature. • Each well was aspirated and washed 3× with Wash Buffer. Each well was filled to the top, dispensed, and any remaining buffer was removed by inverting the plate and gently blotting against clean paper towels. • Non-specific binding sites were blocked by adding 300 μl of Blocking Buffer to each well, and after sealing incubating for at least 1 hour at room temperature. • After washing the plate was now ready for the samples. Assay Procedure: • 100 μl of either standard or sample were added in each well of the capture-coated and pre-blocked plate. The plate was sealed and incubated for 2 hours at room temperature, followed with washing. • 100 μl of the detection antibody (10 ng/ml) were added to each well. […]
One may read the EC50 as the midpoint of the concentration-response curve. `CC(C)=CCc1c(O)c2c(c3c1CCC(C)(C)O3)C1CCC2C1` (stereo not drawn) [2,2-Dimethyl-5-(3-methyl-but-2-enyl)-3,4,7,8,9,10-hexahydro-7,10-methano-2H-benzo[h]chromen-6-ol]: the EC50 was at most 20 µM. As for `CC(C)CCc1c(O)c2c(c3c1CCC(C)(C)O3)C1CCC2C1` (stereo not drawn) [2,2-Dimethyl-5-(3-methyl-butyl)-3,4,7,8,9,10-hexahydro-7,10-methano-2H-benzo[h]chromen-6-ol], the 50% effective concentration (EC50) was at most 20 µM.

In another assay the target is T1, human recombinant 5-lipoxygenase (Homo sapiens, UniProt P09917).
T1 construct: purchased Cayman 60402
T1 sequence (P09917 1-674): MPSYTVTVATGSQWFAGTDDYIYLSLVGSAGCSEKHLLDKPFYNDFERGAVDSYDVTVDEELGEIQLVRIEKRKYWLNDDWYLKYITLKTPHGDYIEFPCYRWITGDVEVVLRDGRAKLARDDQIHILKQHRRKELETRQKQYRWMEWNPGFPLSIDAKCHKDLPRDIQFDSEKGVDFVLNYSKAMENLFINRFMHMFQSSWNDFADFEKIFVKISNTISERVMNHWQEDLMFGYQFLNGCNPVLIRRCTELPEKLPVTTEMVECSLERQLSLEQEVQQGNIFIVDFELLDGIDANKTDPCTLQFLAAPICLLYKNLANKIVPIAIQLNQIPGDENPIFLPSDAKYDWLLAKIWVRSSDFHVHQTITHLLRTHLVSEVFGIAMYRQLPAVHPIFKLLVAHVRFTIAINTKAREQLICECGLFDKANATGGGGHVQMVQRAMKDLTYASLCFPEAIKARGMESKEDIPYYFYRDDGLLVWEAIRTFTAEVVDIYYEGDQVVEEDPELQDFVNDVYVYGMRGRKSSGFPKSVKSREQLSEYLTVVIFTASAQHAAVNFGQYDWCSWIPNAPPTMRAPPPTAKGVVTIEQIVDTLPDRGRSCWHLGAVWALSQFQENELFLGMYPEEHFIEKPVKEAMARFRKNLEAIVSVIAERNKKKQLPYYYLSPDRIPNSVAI
The experiment in a line: 5-Lipoxygenase enzyme assay. The format is biochemical. Conditions: 70 μM arachidonic acid, pH 7.4. Summed up: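 Human recombinant 5-LO (0.5 U) with compound in 50 mM Tris-HCl pH 7.4 reacted with 70 μM arachidonic acid for 10 min at room temperature. Hydroperoxide formation was read via FOX xylenol orange complex at 620 nm after 1 h; compounds at 5 concentrations from 10 μM, in triplicate.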
By IC50 is commonly meant the concentration that gives 50% inhibition. For the compound `CC1(C)CCc2cc(O)c3c(c2O1)C1CCC3CC1` [2,2-Dimethyl-3,4,7,8,9,10-hexahydro-7,10-ethano-2H-benzo[h]chromen-6-ol], the IC50 was at most 5 µM. Take `CC1(CCCCl)CCc2cc(O)c3c(c2O1)C1CCC3C1` (stereo not drawn) [2-(3-Chloro-propyl)-2-methyl-3,4,7,8,9,10-hexahydro-7,10-methano-2H-benzo[h]chromen-6-ol]: the concentration for half-maximal inhibition (IC50) was at most 5 µM. In the case of `CC1(CCCSc2nccs2)CCc2cc(O)c3c(c2O1)C1CCC3C1` (stereo not drawn) [2-Methyl-2-[3-(thiazol-2-ylsulfanyl)-propyl]-3,4,7,8,9,10-hexahydro-7,10-methano-2H-benzo[h]chromen-6-ol], the IC50 is at most 5 µM. Take `CC1(C)C=Cc2cc(O)c3c(c2O1)C1CCC3CC1` [2,2-Dimethyl-7,8,9,10-tetrahydro-7,10-ethano-2H-benzo[h]chromen-6-ol]: the IC50 is at most 5 µM.
